Measured values: PubChem BioAssay AID328 (DTP/NCI, 2004)
Where “and” joins values, the source holds several entries; their conditions need not be identical. Equal entries are not always repeated. Toxic doses and inconclusive results are not listed.

Tested on: BDF1 mice, P388 leukemia ip, median survival T/C
Assay: NCI In Vivo Anticancer Drug Screen. Data for tumor model P388 Leukemia (intraperitoneal) in B6D2F1 (BDF1) mice
Settings: endpoint: median survival time, higher = longer survival
Outline: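 Reported as T/C, where T is the survival measurement in dosed animals and C the same measurement in vehicle controls.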

[1] = dose: 25.0 mg/kg/injection, schedule: Q01DX009 (ip), vehicle: Klucel (hydroxypropylcellulose) (HPC)
[2] = dose: 12.5 mg/kg/injection, schedule: Q01DX009 (ip), vehicle: Klucel (hydroxypropylcellulose) (HPC)
[3] = dose: 50.0 mg/kg/injection, schedule: Q01DX009 (ip), vehicle: Klucel (hydroxypropylcellulose) (HPC)
[4] = dose: 200.0 mg/kg/injection, schedule: Q04DX003 (ip), vehicle: Klucel (hydroxypropylcellulose) (HPC)
[5] = dose: 100.0 mg/kg/injection, schedule: Q04DX003 (ip), vehicle: Klucel (hydroxypropylcellulose) (HPC)
[6] = dose: 25.0 mg/kg/injection, schedule: Q01DX009 (ip), vehicle: saline with Tween-80
[7] = dose: 50.0 mg/kg/injection, schedule: Q01DX009 (ip), vehicle: saline with Tween-80
[8] = dose: 6.25 mg/kg/injection, schedule: Q01DX009 (ip), vehicle: saline
[9] = dose: 12.5 mg/kg/injection, schedule: Q01DX009 (ip), vehicle: saline
[10] = dose: 100.0 mg/kg/injection, schedule: Q01DX009 (ip), vehicle: saline with Tween-80
[11] = dose: 200.0 mg/kg/injection, schedule: Q01DX009 (ip), vehicle: saline with Tween-80

SMILES: CC1(C)O[C@]2(C)CC[C@@H]1C[C@H]2O
- T/C (dose: 50.0 mg/kg/injection, schedule: Q01DX005 (ip), vehicle: saline with Tween-80): 100 % of control
- T/C (dose: 100.0 mg/kg/injection, schedule: Q01DX005 (ip), vehicle: saline with Tween-80): 98 % of control
- T/C (dose: 200.0 mg/kg/injection, schedule: Q01DX005 (ip), vehicle: saline with Tween-80): 95 % of control

SMILES: CC1OC(OC2CC(O)(C(=O)CO)Cc3c(O)c4c(c(O)c32)C(=O)c2ccccc2C4=O)CC(N)C1O (centres undefined)
- T/C (dose: 216.0 micrograms/kg/injection, schedule: Q04DX003 (ip), vehicle: water): 155 % of control
- T/C (dose: 360.0 micrograms/kg/injection, schedule: Q04DX003 (ip), vehicle: water): 163 % of control
- T/C (dose: 600.0 micrograms/kg/injection, schedule: Q04DX003 (ip), vehicle: water): 166 % of control

SMILES: COc1ccc(C(SCC(N)C(=O)O)(c2ccccc2)c2ccc(OC)cc2)cc1 (centres undefined)
- T/C (dose: 3.0 mg/kg/injection, schedule: Q01DX009 (ip), vehicle: Klucel (hydroxypropylcellulose) (HPC)): 123 % of control
- T/C (dose: 4.8 mg/kg/injection, schedule: Q04DX003 (ip), vehicle: Klucel (hydroxypropylcellulose) (HPC)): 104 % of control
- T/C (dose: 7.0 mg/kg/injection, schedule: Q01DX009 (ip), vehicle: Klucel (hydroxypropylcellulose) (HPC)): 150 % of control
- T/C (dose: 7.2 mg/kg/injection, schedule: Q04DX003 (ip), vehicle: Klucel (hydroxypropylcellulose) (HPC)): 104 % of control
- T/C (dose: 10.0 mg/kg/injection, schedule: Q01DX009 (ip), vehicle: Klucel (hydroxypropylcellulose) (HPC)): 170 % of control
- T/C (dose: 11.0 mg/kg/injection, schedule: Q04DX003 (ip), vehicle: Klucel (hydroxypropylcellulose) (HPC)): 122 % of control
- T/C (dose: 16.0 mg/kg/injection, schedule: Q01DX009 (ip), vehicle: Klucel (hydroxypropylcellulose) (HPC)): 154 % of control
- T/C [1]: 172 % of control and 181 % of control
- T/C (dose: 25.0 mg/kg/injection, schedule: Q04DX003 (ip), vehicle: saline): 154 % of control
- T/C (dose: 33.0 mg/kg/injection, schedule: Q04DX003 (ip), vehicle: saline): 209 % of control
- T/C (dose: 35.0 mg/kg/injection, schedule: Q01DX009 (ip), vehicle: Klucel (hydroxypropylcellulose) (HPC)): 204 % of control
- T/C (dose: 50.0 mg/kg/injection, schedule: Q04DX003 (ip), vehicle: saline): 209 % of control and 213 % of control
- T/C (dose: 75.0 mg/kg/injection, schedule: Q04DX003 (ip), vehicle: saline): 231 % of control
- T/C (dose: 100.0 mg/kg/injection, schedule: Q04DX003 (ip), vehicle: saline): 95 % of control

SMILES: Cc1ncc(-c2ccc([N+](=O)[O-])cc2)o1
- T/C [2]: 87 % of control
- T/C (dose: 12.5 mg/kg/injection, schedule: Q04DX003 (ip), vehicle: Klucel (hydroxypropylcellulose) (HPC)): 96 % of control
- T/C [1]: 91 % of control
- T/C (dose: 25.0 mg/kg/injection, schedule: Q04DX003 (ip), vehicle: Klucel (hydroxypropylcellulose) (HPC)): 92 % of control
- T/C [3]: 91 % of control
- T/C (dose: 50.0 mg/kg/injection, schedule: Q04DX003 (ip), vehicle: Klucel (hydroxypropylcellulose) (HPC)): 103 % of control
- T/C [4]: 92 % of control

SMILES: CCOC(=O)CC(C)C(Br)(C(=O)OCC)C(=O)OCC (centres undefined)
- T/C (dose: 25.0 mg/kg/injection, schedule: Q01DX009 (ip), vehicle: water): 110 % of control
- T/C (dose: 25.0 mg/kg/injection, schedule: Q04DX003 (ip), vehicle: water): 108 % of control
- T/C (dose: 50.0 mg/kg/injection, schedule: Q01DX009 (ip), vehicle: water): 121 % of control
- T/C (dose: 50.0 mg/kg/injection, schedule: Q04DX003 (ip), vehicle: water): 110 % of control
- T/C (dose: 100.0 mg/kg/injection, schedule: Q01DX009 (ip), vehicle: water): 114 % of control
- T/C (dose: 100.0 mg/kg/injection, schedule: Q04DX003 (ip), vehicle: water): 117 % of control
- T/C (dose: 200.0 mg/kg/injection, schedule: Q04DX003 (ip), vehicle: water): 106 % of control

SMILES: CCOCCC(O)CC (centres undefined)
- T/C (dose: 178.0 mg/kg/injection, schedule: Q04DX003 (ip), vehicle: saline): 100 % of control
- T/C (dose: 266.0 mg/kg/injection, schedule: Q04DX003 (ip), vehicle: saline): 100 % of control
- T/C (dose: 400.0 mg/kg/injection, schedule: Q04DX003 (ip), vehicle: saline): 100 % of control

SMILES: CN(C)c1ccc(Cc2ccc(N(C)C)cc2[N+](=O)[O-])cc1
- T/C [5]: 100 % of control
- T/C [4]: 95 % of control
- T/C (dose: 400.0 mg/kg/injection, schedule: Q04DX003 (ip), vehicle: Klucel (hydroxypropylcellulose) (HPC)): 104 % of control

SMILES: CN(C)c1ccc(C2NC(=S)NC3=C2CCCC3)cc1 (centres undefined)
- T/C (dose: 12.5 mg/kg/injection, schedule: Q01DX009 (ip), vehicle: saline with Tween-80): 108 % of control
- T/C [6]: 111 % of control
- T/C [7]: 88 % of control and 109 % of control

SMILES: CN=C(N)NCCCCCCCCNC(N)=NC
- T/C [8]: 110 % of control
- T/C [9]: 122 % of control

SMILES: CN(C)C=Nc1ccccc1
- T/C (dose: 100.0 mg/kg/injection, schedule: Q01DX009 (ip), vehicle: Klucel (hydroxypropylcellulose) (HPC)): 113 % of control
- T/C (dose: 200.0 mg/kg/injection, schedule: Q01DX009 (ip), vehicle: Klucel (hydroxypropylcellulose) (HPC)): 95 % of control
- T/C (dose: 400.0 mg/kg/injection, schedule: Q01DX009 (ip), vehicle: Klucel (hydroxypropylcellulose) (HPC)): 109 % of control

SMILES: Cc1ccccc1-n1c(C)nc2ccccc2c1=O
- T/C [2]: 100 % of control
- T/C [1]: 96 % of control
- T/C [3]: 92 % of control
- T/C [5]: 104 % of control
- T/C [4]: 91 % of control

SMILES: O=C(Nc1ccc2c(c1)OCO2)O/N=C\c1cccnc1
- T/C (dose: 50.0 mg/kg/injection, schedule: Q04DX003 (ip), vehicle: saline with Tween-80): 100 % of control
- T/C (dose: 100.0 mg/kg/injection, schedule: Q04DX003 (ip), vehicle: saline with Tween-80): 109 % of control
- T/C (dose: 200.0 mg/kg/injection, schedule: Q04DX003 (ip), vehicle: saline with Tween-80): 109 % of control

SMILES: O=C1C(Cl)=C(Cl)C(=O)C(/C=C/N2CCOCC2)=C1Cl
- T/C (dose: 6.25 mg/kg/injection, schedule: Q01DX001 (ip), vehicle: saline with Tween-80): 109 % of control
- T/C (dose: 12.5 mg/kg/injection, schedule: Q01DX001 (ip), vehicle: saline with Tween-80): 117 % of control
- T/C (dose: 25.0 mg/kg/injection, schedule: Q01DX001 (ip), vehicle: saline with Tween-80): 104 % of control
- T/C (dose: 50.0 mg/kg/injection, schedule: Q01DX001 (ip), vehicle: saline with Tween-80): 113 % of control

SMILES: CCOC(=O)C(N)C[S][Sn]([CH3])([CH3])[Cl] (centres undefined)
- T/C [8]: 122 % of control
- T/C [9]: 124 % of control

SMILES: C=C(C)C12OC3(c4ccccc4)OC1C1C4OC4(CO)C(O)C4(O)C(=O)C(C)=CC4C1(O3)C(C)C2OC(=O)/C=C/C=C/c1ccccc1 (centres undefined)
- T/C (dose: 0.01 mg/kg/injection, schedule: Q01DX009 (ip), vehicle: saline + alcohol): 115 % of control
- T/C (dose: 0.02 mg/kg/injection, schedule: Q01DX009 (ip), vehicle: saline + alcohol): 94 % of control
- T/C (dose: 0.03 mg/kg/injection, schedule: Q01DX009 (ip), vehicle: saline + alcohol): 123 % of control
- T/C (dose: 0.5 mg/kg/injection, schedule: Q01DX009 (ip), vehicle: saline + alcohol): 156 % of control
- T/C (dose: 3.1 micrograms/kg/injection, schedule: Q01DX009 (ip), vehicle: saline + alcohol): 123 % of control
- T/C (dose: 6.0 micrograms/kg/injection, schedule: Q01DX009 (ip), vehicle: saline + alcohol): 101 % of control
- T/C (dose: 6.3 micrograms/kg/injection, schedule: Q01DX009 (ip), vehicle: saline + alcohol): 104 % of control
- T/C (dose: 12.5 micrograms/kg/injection, schedule: Q01DX009 (ip), vehicle: saline + alcohol): 123 % of control
- T/C (dose: 25.0 micrograms/kg/injection, schedule: Q01DX009 (ip), vehicle: gum acacia): 121 % of control
- T/C (dose: 25.0 micrograms/kg/injection, schedule: Q01DX009 (ip), vehicle: saline + alcohol): 124 % of control
- T/C (dose: 25.0 micrograms/kg/injection, schedule: Q01DX009 (ip), vehicle: saline with Tween-80): 200 % of control
- T/C (dose: 50.0 micrograms/kg/injection, schedule: Q01DX009 (ip), vehicle: gum acacia): 90 % of control
- T/C (dose: 50.0 micrograms/kg/injection, schedule: Q01DX009 (ip), vehicle: saline + alcohol): 155 % of control
- T/C (dose: 50.0 micrograms/kg/injection, schedule: Q01DX009 (ip), vehicle: saline with Tween-80): 92 % of control
- T/C (dose: 100.0 micrograms/kg/injection, schedule: Q01DX009 (ip), vehicle: saline with Tween-80): 88 % of control

SMILES: CCCCC(CC)COC(=O)CC(CC(=O)OCC(CC)CCCC)C(=O)OCC(CC)CCCC (centres undefined)
- T/C [7]: 92 % of control
- T/C [10]: 92 % of control
- T/C [11]: 92 % of control

SMILES: O=c1nc[nH]c(=O)[nH]1
- T/C [6]: 97 % of control
- T/C [7]: 99 % of control
- T/C [10]: 97 % of control
- T/C [11]: 104 % of control
